Measured values reported in US20100305124A1, “Acylated Aminopyridine and Aminopyridazine Insecticides” (BAYER CROPSCIENCE AG, priority 2009, published 2010).

System: green peach aphid (Myzus persicae)
Experiment: Myzus test (MYZUPE), sprayed aubergine plants
Format: in vivo
Details: application rate of 500 ppm, spray on aubergine plants, read-out: effect in % (aphids killed)
Protocol: Solvent: 3 parts by weight of dimethylformamide Emulsifier: 1 part by weight of polyoxyethylenealkyl phenyl ether
An appropriate preparation of active ingredient is prepared by mixing 1 part by weight of active ingredient with the stated amount of solvent and emulsifier and diluting the concentrate with water to the desired concentration.
Aubergine plants (Solanum melongena) infested by all stages of the green peach aphid (Myzus persicae) are sprayed with a preparation of active ingredient at the desired concentration.
After the desired time, the effect in % is determined; here, 100% means that all of the aphids have been killed. Conversely, 0% means that no aphids have been killed.

Row | SMILES | pest or weed control at 500 ppm
1 | CCN(C)C(=O)c1cccc(C(=O)Nc2cccnc2)c1 [I-71] | ≥ 80%
2 | COc1cc(OC)nc(Sc2ccc(C(=O)Nc3cccnc3)cc2)n1 [I-176] | ≥ 80%
3 | CCN(C(=O)c1ccc(Sc2nc(OC)nc(OC)n2)cc1)c1cccnc1 [I-190] | ≥ 80%
4 | CCN(C(=O)c1cccc(OCc2nc(OC)cc(OC)n2)c1)c1cccnc1 [I-208] | ≥ 80%
5 | CN(C(=O)c1ccc(Oc2ccc(Cl)cc2Cl)nc1)c1cccnc1 [I-114] | ≥ 80%
6 | CN(C(=O)c1ccc(N(C)C(=O)C(F)(F)Cl)cc1)c1cccnc1 [I-245] | ≥ 80%
7 | C#CCN(C(=O)c1ccc(Oc2ccc(OC(F)(F)F)cc2)nc1)c1cccnc1 [I-135] | ≥ 80%
8 | CN(C(=O)c1cccc(COc2ccc(C(F)(F)F)cc2)c1)c1cccnc1 [I-14] | ≥ 80%
9 | Cc1ccc(Oc2ccc(C(=O)N(C)c3cccnc3)cn2)cc1 [I-102] | ≥ 80%
10 | CCCCSCc1ccc(C(=O)Nc2cccnc2)cc1 [I-40] | ≥ 80%
11 | CN(C(=O)c1ccc(Oc2cc(Cl)cc(Cl)c2)nc1)c1cccnc1 [I-123] | ≥ 80%
12 | CN(C(=O)c1ccc(Oc2ccc(C#N)cc2)nc1)c1cccnc1 [I-90] | ≥ 80%
13 | CCN(C)C(=O)c1cc(C(=O)Nc2cccnc2)ccc1OC [I-76] | ≥ 80%
14 | CCN(C(=O)c1ccc(SC)cc1)c1cccnc1 [I-63] | ≥ 80%
15 | O=C(Nc1cccnc1)c1ccc(N2CCOCC2)nc1 [I-212] | ≥ 80%
16 | CSc1cccc(C(=O)N(C)c2cccnc2)c1 [I-69] | ≥ 80%
17 | Cc1cc(C)nc(Oc2ccc(C(=O)Nc3cccnc3)cc2)n1 [I-181] | ≥ 80%
18 | CSCc1cccc(C(=O)N(C)c2cccnc2)c1 [I-57] | ≥ 80%
19 | Cc1cc(C)nc(Sc2ccc(C(=O)N(Cc3ccc(C#N)cc3)c3cccnc3)cn2)n1 [I-228] | ≥ 80%
20 | CCCNc1ccc(C(=O)Nc2cccnc2)cn1 [I-209] | ≥ 80%
21 | CN(C(=O)c1ccc(Oc2ccc(C(F)(F)F)cc2)nc1)c1cccnc1 [I-117] | ≥ 80%
22 | CCN(CC)C(=O)c1ccc(C(=O)Nc2cccnc2)cc1 [I-250] | ≥ 80%
23 | Cc1nc(Sc2ccc(C(=O)N(C)c3cccnc3)cn2)nc(C)c1C [I-138] | ≥ 80%

Row | SMILES | pest or weed control at 500 ppm
24 | Cc1cc(C)nc(Oc2ccc(C(=O)N(C)c3cccnc3)cn2)n1 [I-144] | ≥ 80%
25 | CCN(C(=O)c1ccc(Oc2ccc(OC(F)(F)F)cc2)nc1)c1cccnc1 [I-132] | ≥ 80%
26 | CS(=O)(=O)c1ccc(Oc2ccc(C(=O)Nc3cccnc3)cn2)cc1 [I-217] | ≥ 80%
27 | C#CCN(C(=O)c1ccc(Cl)nc1)c1cccnc1 [I-232] | ≥ 80%
28 | CN(C(=O)c1ccc(Oc2cccc(C(F)(F)F)c2)nc1)c1cccnc1 [I-100] | ≥ 80%
29 | CN(C(=O)c1ccc(Oc2ccc3cccnc3c2)nc1)c1cccnc1 [I-141] | ≥ 80%
30 | O=C(Nc1cccnc1)c1ccc(NCCN2CCOCC2)nc1 [I-223] | ≥ 80%
31 | CSc1ccc(C(=O)Nc2cccnc2)cn1 [I-108] | ≥ 80%
32 | CC(C)SCc1ccc(C(=O)N(C)c2cccnc2)cc1 [I-61] | ≥ 80%
33 | CSCc1ccc(C(=O)N(C)c2cccnc2)cc1 [I-59] | ≥ 80%
34 | O=C(Nc1cccnc1)c1ccc(Oc2ccccc2Cl)nc1 [I-82] | ≥ 80%
35 | COc1ccc(Oc2ccc(C(=O)N(C)c3cccnc3)cn2)cc1 [I-92] | ≥ 80%
36 | CN(C(=O)c1ccc(NC(=O)CC(F)(F)F)cc1)c1cccnc1 [I-51] | ≥ 80%
37 | CCN(C(=O)c1ccc(Oc2ccc(Cl)cc2)nc1)c1cccnc1 [I-161] | ≥ 80%
38 | CCN(C(=O)c1ccc(Oc2nc(OC)cc(OC)n2)cc1)c1cccnc1 [I-172] | ≥ 80%
39 | CN(C(=O)c1ccc(C(=O)NCc2ccccc2)cc1)c1cccnc1 [I-255] | ≥ 80%
40 | O=C(Nc1cccnc1)c1ccc(Oc2cccc(Cl)c2)nc1 [I-83, 6-(3-Chlorophenoxy)-N-pyridin-3-ylnicotinamide] | ≥ 80%
41 | CN(C(=O)c1cccc(Cn2nc(C(F)(F)F)cc2C(F)(F)F)c1)c1cccnc1 [I-13] | ≥ 80%
42 | Cc1cc(C)nc(Sc2ccc(C(=O)Nc3cccnc3)cc2)n1 [I-179] | ≥ 80%
43 | O=C(Nc1cccnc1)c1ccc(Oc2cccc(C(F)(F)F)c2)nc1 [I-88] | ≥ 80%
44 | CC(=O)N(Cc1ccc(C(=O)N(C)c2cccnc2)cc1)CC(C)C [I-238] | ≥ 80%
45 | CCN(C)C(=O)c1cc(C(=O)N(C)c2cccnc2)ccc1OC [I-77] | ≥ 80%
